From publication PMC6630832, “3-Vinylazetidin-2-Ones: Synthesis, Antiproliferative and Tubulin Destabilizing Activity in MCF-7 and MDA-MB-231 Breast Cancer Cells” (Pharmaceuticals, 2019) come the findings set out here.

Where two headings read alike, the source gives them in different places. Where only a bound is given, the exact number is not on record here.

Broadly, the GI50 is the concentration giving 50% growth inhibition.

Holding throughout (assay type): cell-based
The test system of assay [1] is MCF-7 cells. Put plainly: Lactate dehydrogenase (LDH) assay for cytotoxicity. The settings on record: Homo sapiens, MCF7, 72 h, read-out: cell death (LDH assay). Here is the method: Cytotoxicity was determined using the CytoTox 96 non-radioactive cytotoxicity assay (Promega Corporation; 2800 Woods Hollow Road, Madison, WI, USA) following the manufacturer’s protocol. Briefly, MCF-7 cells were seeded in 96-well plates, incubated for 24 hr and then treated with test compounds (7d, 7h, 7i, 7q, 7r, 7u, 7t, 10d, 10f, 12) as described in the cell viability assay above. After 72 h, 20 μL of ‘lysis solution (10X)’ was added to control wells and the plate was incubated for a further 1 hr to ensure 100% death. 50 μL of supernatant was carefully removed from each well and transferred to a new 96-well plate. 50 μL of reconstituted ‘substrate mix’ was added and the plate was placed in the dark at room temperature for 30 min. After this period, 50 μL of ‘stop solution’ was added to each well and the absorbance was read at a wavelength of 490 nm using a Dynatech MR5000 plate reader. The percentage cell death at 10 μM was calculated.

Assay [2] relates to ACHN. Nature of the assay: NCI60 screen (SRB), Renal cancer. The settings on record: Homo sapiens.
In assay [3] the test system is UACC-62. Put plainly: NCI60 screen (SRB), Melanoma. As to conditions: Homo sapiens.
In assay [4] the test system is RXF 393. Nature of the assay: NCI60 screen (SRB), Renal cancer. The settings on record: Homo sapiens.
For assay [5], the system named is SW-620. Nature of the assay: NCI60 screen (SRB), Colon Cancer. As to conditions: Homo sapiens.
For assay [6], the system named is M14. Nature of the assay: NCI60 screen (SRB), Melanoma. As to conditions: Homo sapiens.
Assay [7] deals with A498. Put plainly: NCI60 screen (SRB), Renal cancer. As to conditions: Homo sapiens.
The subject of assay [8] is MDA-MB-468. Nature of the assay: NCI60 screen (SRB), Breast cancer. As to conditions: Homo sapiens.
Assay [9] concerns SNB-75. Put plainly: NCI60 screen (SRB), CNS Cancer. As to conditions: Homo sapiens.
The test system of assay [10] is NCI/ADR-RES. Put plainly: NCI60 screen (SRB), Ovarian cancer. As to conditions: Homo sapiens.
The subject of assay [11] is 786-0. Nature of the assay: NCI60 screen (SRB), Renal cancer. As to conditions: Homo sapiens.
The subject of assay [12] is CAKI-1. Nature of the assay: NCI60 screen (SRB), Renal cancer. The settings on record: Homo sapiens.
The subject of assay [13] is HS 578T. Put plainly: NCI60 screen (SRB), Breast cancer. As to conditions: Homo sapiens.
The subject of assay [14] is OVCAR-5. Nature of the assay: NCI60 screen (SRB), Ovarian cancer. As to conditions: Homo sapiens.
Assay [15] has as its system SF-268. Put plainly: NCI60 screen (SRB), CNS Cancer. The settings on record: Homo sapiens.
The subject of assay [16] is DU-145. Nature of the assay: NCI60 screen (SRB), Prostate cancer. As to conditions: Homo sapiens.
In assay [17] the test system is U251. Nature of the assay: NCI60 screen (SRB), CNS Cancer. As to conditions: Homo sapiens, U-251.
For assay [18], the system named is SF539. Put plainly: NCI60 screen (SRB), CNS Cancer. As to conditions: Homo sapiens, SF-539.
Assay [19] deals with RPMI-8226. Put plainly: NCI60 screen (SRB), Leukemia. The settings on record: Homo sapiens.
For assay [20], the system named is HL-60(TB). Put plainly: NCI60 screen (SRB), Leukemia. As to conditions: Homo sapiens; NCI60 Leukemia cell line HL-60(TB).
Assay [21] concerns MOLT-4. Put plainly: NCI60 screen (SRB), Leukemia. As to conditions: Homo sapiens.
Where [22] appears, read: NCI60 Renal cancer cell line ACHN, read-out: GI50.
[23] abbreviates: NCI60 Melanoma cell line UACC-62, read-out: GI50.
[24] abbreviates: NCI60 Renal cancer cell line RXF 393, read-out: GI50.
Setting [25] is: NCI60 Colon Cancer cell line SW-620, read-out: GI50.
[26] abbreviates: NCI60 Melanoma cell line M14, read-out: GI50.
Setting [27] is: NCI60 Renal cancer cell line A498, read-out: GI50.
Where [28] appears, read: NCI60 Breast cancer cell line MDA-MB-468, read-out: GI50.
[29] abbreviates: NCI60 CNS Cancer cell line SNB-75, read-out: GI50.
[30] abbreviates: NCI60 Ovarian cancer cell line NCI/ADR-RES, read-out: GI50.
Where [31] appears, read: NCI60 Renal cancer cell line 786-0, read-out: GI50.
The mark [32] stands for this setting: NCI60 Renal cancer cell line CAKI-1, read-out: GI50.
Where [33] appears, read: NCI60 Breast cancer cell line HS 578T, read-out: GI50.
Setting [34] is: NCI60 Ovarian cancer cell line OVCAR-5, read-out: GI50.
[35] abbreviates: NCI60 CNS Cancer cell line SF-268, read-out: GI50.
The mark [36] stands for this setting: NCI60 Prostate cancer cell line DU-145, read-out: GI50.
The mark [37] stands for this setting: NCI60 CNS Cancer cell line U251, read-out: GI50.
The mark [38] stands for this setting: NCI60 CNS Cancer cell line SF539, read-out: GI50.
Setting [39] is: NCI60 Leukemia cell line RPMI-8226, read-out: GI50.
Where [40] appears, read: NCI60 Leukemia cell line MOLT-4, read-out: GI50.

`COc1ccc(/C=C\c2cc(OC)c(OC)c(OC)c2)cc1O` [CA-4, Combretastatin A-4, reference compound]: the cytotoxicity at 10 µM in assay [1] came to 11.8%.
Take `C=CC1C(=O)N(c2cc(OC)c(OC)c(OC)c2)C1c1ccc(OC)cc1` (stereo not drawn) [Compound 7h, 4-(4-Methoxyphenyl)-1-(3,4,5-trimethoxyphenyl)-3-vinylazetidin-2-one]: the GI50 in [2] (ACHN) was found to be 61.5 nM; in [3] (UACC-62), 50.2 nM; in assay [4] (RXF 393), 28.7 nM; in [5] (SW-620), 40.2 nM; in assay [6] (M14), 25.2 nM; in assay [7] (A498), 18.3 nM. Also, the 50% growth inhibitory concentration (GI50) in [8] (MDA-MB-468) is 22.7 nM; in [9] (SNB-75), 37.2 nM; in assay [10] (NCI/ADR-RES) it was 27.2 nM; in assay [11] (786-0), 33.9 nM; in assay [12] (CAKI-1) it was 392 nM; in assay [13] (Hs-578T), 72.7 nM. The concentration for 50% growth inhibition (GI50) in assay [14] (OVCAR-5) stood at 58.7 nM; in [15] (SF-268), 47.6 nM; in assay [16] (DU-145) it was 29.8 nM; in [17], 34.2 nM. Further, the cytotoxicity at 10 µM in assay [1] stood at 2.4%.
Regarding `C=CC1C(=O)N(c2cc(OC)c(OC)c(OC)c2)C1c1ccc(OC)c(O)c1` (stereo not drawn) [Compound 7s, 4-[3-Hydroxy-4-methoxyphenyl]-1-(3,4,5-trimethoxyphenyl)-3-vinylazetidin-2-one], the GI50 in [2] (setting [22]) was less than 10 nM; in assay [3] (setting [23]), less than 10 nM; in assay [4] (setting [24]) it was 13.6 nM; in [5] (setting [25]), less than 10 nM; in assay [6] (setting [26]), less than 10 nM; in assay [7] (setting [27]) it was less than 10 nM. In addition, the GI50 in [8] (setting [28]) is less than 10 nM; in assay [9] (setting [29]), 15.3 nM; in assay [10] (setting [30]), less than 10 nM; in assay [11] (setting [31]), 27.3 nM; in [12] (setting [32]), 40.2 nM; in [13] (setting [33]) it was less than 10 nM. Besides, the concentration for 50% growth inhibition (GI50) in assay [14] (setting [34]) was 45.3 nM; in assay [15] (setting [35]), less than 10 nM; in assay [16] (setting [36]), less than 10 nM; in assay [17] (setting [37]) it was 15.6 nM. In [1], the cytotoxicity at 10 µM was found to be 16.1%.
Take `C=CC1C(=O)N(c2cc(OC)c(OC)c(OC)c2)C1c1ccc(OC)c(N)c1` (stereo not drawn) [Compound 7t, 4-(3-Amino-4-methoxyphenyl)-1-(3,4,5-trimethoxyphenyl)-3-vinylazetidin-2-one]: the GI50 in assay [2] (ACHN) was 37.3 nM; in [3] (UACC-62), 12300 nM; in [4] (RXF 393), 36.6 nM; in [5] (SW-620) it was 40.5 nM; in assay [18], less than 10 nM; in [6] (M14), 27.2 nM. Also, the GI50 in assay [19] (RPMI-8226) was less than 10 nM; in assay [7] (A498) it was 11 nM; in [20], 13.7 nM; in assay [8] (MDA-MB-468) it was less than 10 nM; in assay [9] (SNB-75), 30.1 nM; in assay [10] (NCI/ADR-RES), less than 10 nM. Moreover, the GI50 in assay [11] (786-0) stood at 34.6 nM; in [12] (CAKI-1), 32.9 nM; in assay [21] (MOLT-4), 40 nM; in [13] (Hs-578T) it was 39.8 nM; in assay [14] (OVCAR-5), 44.6 nM; in assay [15] (SF-268) it was 54.6 nM. Also, the 50% growth inhibitory concentration (GI50) in assay [16] (DU-145) worked out at 36.5 nM; in [17], 36.2 nM. Also, in [1], the cytotoxicity at 10 µM was found to be 25%.
For the molecule `C=CC1C(=O)N(c2cc(OC)c(OC)c(OC)c2)C1c1ccc(OC)c(OP(=O)(O)O)c1` (stereo not drawn) [Compound 17b, 2-Methoxy-5-(1-(3,4,5-trimethoxyphenyl)-4-oxo-3-vinylazetidin-2-yl)phenyl dihydrogen phosphate], the GI50 is 64.5 nM in assay [2] (setting [22]); 51.1 nM in assay [3] (setting [23]); 64.8 nM in assay [4] (setting [24]); 55.2 nM in [5] (setting [25]); 42 nM in [18] (setting [38]); 748 nM in assay [6] (setting [26]). Moreover, the concentration for 50% growth inhibition (GI50) in assay [19] (setting [39]) turned out to be 80.2 nM; in assay [7] (setting [27]), 21.8 nM; in assay [20], 27.3 nM; in assay [8] (setting [28]), 49.6 nM; in assay [9] (setting [29]), 36.5 nM; in assay [10] (setting [30]) it was 37 nM. Besides, the GI50 was determined as 229 nM in assay [11] (setting [31]); 71.7 nM in [12] (setting [32]); 129 nM in assay [21] (setting [40]); 53.1 nM in assay [13] (setting [33]); 3570 nM in [14] (setting [34]); 88.4 nM in assay [15] (setting [35]). Also, the GI50 amounted to 59.6 nM in assay [16] (setting [36]) and 34.3 nM in assay [17] (setting [37]).
As to `CCC1C(=O)N(c2cc(OC)c(OC)c(OC)c2)C1c1ccc(OC)c(OP(=O)(O)O)c1` (stereo not drawn) [Compound 17c, 5-(3-Ethyl-1-(3,4,5-trimethoxyphenyl)-4-oxoazetidin-2-yl)-2-methoxyphenyl dihydrogen phosphate], the concentration for 50% growth inhibition (GI50) was found to be 38.5 nM in assay [2] (setting [22]); 34.8 nM in [3] (setting [23]); 36.9 nM in assay [4] (setting [24]); 37.9 nM in assay [5] (setting [25]); 16.2 nM in [18] (setting [38]); 31.7 nM in [6] (setting [26]). Moreover, the GI50 in assay [19] (setting [39]) was 48.2 nM; in assay [7] (setting [27]), 12.9 nM; in [20] it was 28.8 nM; in assay [8] (setting [28]) it was 27.6 nM; in [9] (setting [29]), 23.7 nM; in assay [10] (setting [30]) it was 19.1 nM. The GI50 in assay [11] (setting [31]) amounted to 44.5 nM; in assay [12] (setting [32]), 35.2 nM; in [21] (setting [40]), 47.7 nM; in assay [13] (setting [33]) it was 37.1 nM; in [14] (setting [34]), 444 nM; in assay [15] (setting [35]), 43.3 nM. The concentration for 50% growth inhibition (GI50) in assay [16] (setting [36]) was 41.3 nM; in assay [17] (setting [37]), 31.3 nM.
